Experimental data from patent US20230085945A1, “ORTHOGONAL SAFETY SWITCHES TO ELIMINATE GENETICALLY ENGINEERED CELLS” (The Board of Trustees of the Leland Stanford Junior …, priority 2020, published 2023).

Key:
[1] = tested on: ACTB^TK-mPlum;NANOG^iCasp9-YFP hESCs (iCaspase9-expressing cells); assay: AP21967 treatment of iCaspase9-expressing cells (cross-reactivity check); assay type: cell-based, human; conditions: AP21967 24 hours
[2] = tested on: ACTB^OiCasp9-mPlum;NANOG^iCasp9-YFP hPSCs and differentiated liver, bone and neural progenitors; assay: Killing of ACTB^OiCasp9-mPlum;NANOG^iCasp9-YFP hPSCs and differentiated derivatives by AP21 or AP20 (alamar blue); assay type: cell-based, human; conditions: dual-transgenic line; 1 nM, 24 hours
Procedure: FIG. 6: Rationale, design and implementation of the ACTB^OiCasP9-mPlum safety switch. A) Intended application of the dual ACTB^OiCasp9-mPlum;NANOG^iCasp9-YFP safeguard. B) Cas9 RNP/AAV6-based knock-in strategy for ACTB^iCasp9-mPlum targeting, which was performed in the NANOG^iCasp9-YFP hESC line. C) 5×10^5 ACTB^OiCasp9-mPlum; NANOG^iCasp9-YFP hESCs were treated with control media or 1-1000 nM AP21967 for 24 hours. Cell viability was analyzed using alamar blue. D) ACTB^OiCasp9-mPlum;NANOG^iCasp9-YFP and ACTB^TK-mPlum; NANOG^iCasp9-YFP hESCs (negative control), in addition to their respective differentiated derivatives, were treated for 24 hours with 1 nM of AP21967. E) 5×10^5 ACTB^OiCasp9-mPlum; NANOG^iCasp9-YFP hESCs, and their respective differentiated derivatives, were treated with control media, 1 nM of AP21967 or and 1 nM of AP20187 for 24 hours. Surviving cells were analyzed by alamar blue. F) 10^6 ACTB^OiCasp9-mPlum;NANOG^iCasp9-YFP hESCs engineered to express CAG-AkaLuciferase were treated with control media or 1 nM AP20187 for 24 hours, and then subcutaneously transplanted into the right and left dorsal flanks of NOD-SCID Il2rg^−/− mice (10^6 cells per flank). 4 weeks post-transplant, teratomas formed and AP21967 was intraperitoneally administered once at 10 mg/kg. […] Total flux (photons/sec) was measured for each animal and was averaged.

[3] = tested on: H9 undifferentiated hPSCs and hPSC-derived neural, liver, and sclerotome cells; assay: YM155 treatment, cell viability by alamar blue; assay type: cell-based, human; conditions: YM155 10 nM or 2 μM, 24 hours
Description: FIG. 7: Marker expression during hPSC differentiation and evaluation of past safety switches (related to FIG. 2). A) i) Flow cytometry analysis of widely-used pluripotency surface markers SSEA-3, SSEA-4, TRA-1-60, TRA-1-81 and PODXL1^20,21 before and during differentiation into endodermal, mesodermal and ectodermal lineages for 1-6 days. Positive gates were set based on unstained negative controls. ii) Gene expression analysis of previously reported safety system genes CDK1, TERT, SCD1, PODXL1 and SURVIVIN before and during differentiation into endodermal, mesodermal and ectodermal lineages. Expression of lineage markers is depicted normalized to the reference gene YWHAZ (i.e., YWHAZ=1.0). B) Widely-used pluripotency surface markers such as SSEA-3, SSEA-4, TRA-1-60, TRA-1-81 and PODXL1^20,21 were not exclusive to pluripotent cells. […] Unstained hESCs (top row; grey shading) were used as a negative control to set positive gates (dotted vertical lines). […] D) H9 undifferentiated hPSCs and hPSC-derived neural, liver, and sclerotome cells (generated after 6 days of differentiation) were treated for 24 hours with YM155 (either 10 nM or 2 μM), a small molecule SURVIVIN inhibitor, and cell viability was assessed using alamar blue.

[4] = tested on: ACTB^HSV-TK-mPlum;NANOG^iCasp9-YFP hPSC-derived liver, bone and forebrain progenitors; assay: Ganciclovir treatment of differentiated progenitors, cell counting at day 6; assay type: cell-based, human; conditions: ganciclovir for last 24 hours of differentiation
[5] = tested on: ACTB^HSV-TK-mPlum;NANOG^iCasp9-YFP hPSCs; assay: Quantification of cell death after ganciclovir treatment of hPSCs; assay type: cell-based, human
Procedure: (§1) FIG. 5: Implementation of the ACTB^TK-mPlum safety switch. A) NANOG^iCasp9-YFP;ACTB^TK-mPlum hESCs were treated with ganciclovir (or left untreated) for 24 hours, and subsequently ganciclovir was withdrawn and hESCs were cultured for 1 week in mTeSR1 to detect any surviving cells and to allow them to regrow. […] N.D.=not detected. B) NANOG^iCasp9-YFP;ACTB^TK-mPlum hESCs were differentiated into day 6 liver, sclerotome and neural progenitors and treated with ganciclovir at the indicated doses for the last 24 hours of differentiation. Cell survival was analyzed by counting at day 6 of differentiation. C) 10^6 NANOG^iCasp9-YFP; ACTB^TK-mPlum hESCs engineered to express CAG-AkaLuciferase were treated with control media or 1 nM AP20187 for 24 hours, and then subcutaneously transplanted into the right and left dorsal flanks of NOD-SCID Il2rg^−/− mice (10^6 cells per flank). After 3 weeks post-transplant, teratomas formed in vivo and ganciclovir was administered daily at 50 mg/kg until week 7 post-transplant. Bioluminescent imaging of mice was conducted weekly for 7 weeks. Total flux (photons/sec) was measured for each animal and were averaged.
Quantification of cell death after ganciclovir treatment. […] At the end of 6 days of culture in mTeSR1 alone, the number of surviving live cells was counted.

[6] = tested on: teratomas from ACTB^HSV-TK-mPlum;NANOG^iCasp9-YFP hPSCs; assay: Elimination of teratomas using ganciclovir in vivo (bioluminescent imaging); parameters: species or system NSG mice; conditions: week 7 post-transplantation, 4 weeks after initiating ganciclovir 50 mg/kg daily
Procedure: as §1, with “After 3 weeks post-transplant, teratomas formed in vivo and ganciclovir was administered daily at 50 mg/kg until week 7 post-transplant. Bioluminescent imaging of mice was conducted weekly for 7 weeks.” left out
FIG. 10: Supporting data for ACTB^TK-mPlum safety switch (related to FIGS. 4-5). […] Total flux (photons/sec) was measured for each animal.
Bioluminescent imaging. […] Subsequent image analysis was done in Aura with regions of interest (ROIs) drawn for each mouse to calculate Total Flux (photons/sec) in order to quantify teratoma growth over time. […]

CO[C@H]1[C@@H](O)[C@H](C)C[C@H](C)/C=C/C=C/C=C(\C)[C@@H](c2c[nH]c3c(C)cccc23)C[C@@H]2CC[C@@H](C)[C@@](O)(O2)C(=O)C(=O)N2CCCC[C@H]2C(=O)O[C@H]([C@H](C)C[C@@H]2CC[C@@H](O)[C@H](OC)C2)C[C@H](O)[C@H](C)/C=C(\C)[C@H]1O [AP21]
killing of iCaspase9-expressing cells [1]: does not kill iCaspase9-expressing cells
killing of undifferentiated and differentiated cells [2]: kill both undifferentiated hPSCs and differentiated liver, bone and neural progenitors

COCCn1c2c([n+](Cc3cnccn3)c1C)C(=O)c1ccccc1C2=O [YM155]
cell killing (viability) [3]: killed both undifferentiated and differentiated hPSCs

Nc1nc(O)c2ncn(COC(CO)CO)c2n1 [ganciclovir]
in vitro proliferation of derivative liver, bone and forebrain progenitors [4]: broadly blocked the in vitro proliferation
in vitro proliferation of hPSCs ([5]; ganciclovir 24 hours, then 1 week in mTeSR1): broadly blocked the in vitro proliferation
cell death in hPSCs ([5]; three days post-GCV treatment (0.5-2 μM, 24 hours)): cell death was observed
detectable teratomas by bioluminescent imaging [6]: no ganciclovir-treated mice had detectable teratomas
